Reference: patent publication US10138212B2, “Aminoquinazoline compounds as A2A antagonist” (Merck Sharp & Dohme Corp., priority 2015, dated 2018)

Columns and labels:
[1] = target: human A2a receptor (Homo sapiens (Human), UniProt P29274); experiment: A2a competition binding assay using Scintillation Proximity technology
Outline: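 Membranes (0.25 or 1 μg) from HEK293 expressing the receptor were pretreated with adenosine deaminase and bound to WGA-coated yttrium silicate SPA beads. They were incubated 1 h at room temperature with compound at 3000–0.15 nM and 0.5 nM tritiated pyrazolotriazolopyrimidine ligand in Ca/Mg-free DPBS with 10 mM MgCl2. Ki was derived from […] by Cheng-Prusoff.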

[2] = target: human A1 receptor (Homo sapiens (Human), UniProt P30542); experiment: A1 competition binding assay using Scintillation Proximity technology; selectivity = A1 binding Ki / A2a binding Ki; conditions: A1 binding Ki divided by A2a binding Ki
Outline: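 SPA competition using 5 ug membranes from CHO-K1 cells expressing human A1, pretreated with adenosine deaminase. Radioligand was 0.7 nM [3H]DPCPX (final), with compound at 3000–0.15 nM in DPBS + 10 mM MgCl2. Incubation was 1 h at room temperature. Non-specific binding was defined with 1 uM DPCPX, and Ki was derived as for A2a.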

[3] = 0.25 μg of membranes from HEK293 cells expressing the human A2a receptor
[4] = * assay run with 1 μg of membranes versus 0.25 μg, HEK293 cells expressing the human A2a receptor

Chain of human A2a receptor (P29274 whole entry): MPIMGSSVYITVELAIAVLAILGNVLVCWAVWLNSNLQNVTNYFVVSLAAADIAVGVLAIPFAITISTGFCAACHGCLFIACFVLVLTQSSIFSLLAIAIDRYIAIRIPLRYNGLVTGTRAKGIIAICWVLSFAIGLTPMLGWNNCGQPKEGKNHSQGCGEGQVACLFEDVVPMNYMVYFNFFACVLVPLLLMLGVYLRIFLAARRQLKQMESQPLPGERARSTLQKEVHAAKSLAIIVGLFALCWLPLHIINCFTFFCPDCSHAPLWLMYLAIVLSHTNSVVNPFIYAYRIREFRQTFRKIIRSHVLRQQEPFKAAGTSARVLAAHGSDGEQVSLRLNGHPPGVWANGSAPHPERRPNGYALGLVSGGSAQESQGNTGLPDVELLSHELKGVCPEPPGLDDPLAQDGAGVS
Chain of human A1 receptor (P30542 whole entry): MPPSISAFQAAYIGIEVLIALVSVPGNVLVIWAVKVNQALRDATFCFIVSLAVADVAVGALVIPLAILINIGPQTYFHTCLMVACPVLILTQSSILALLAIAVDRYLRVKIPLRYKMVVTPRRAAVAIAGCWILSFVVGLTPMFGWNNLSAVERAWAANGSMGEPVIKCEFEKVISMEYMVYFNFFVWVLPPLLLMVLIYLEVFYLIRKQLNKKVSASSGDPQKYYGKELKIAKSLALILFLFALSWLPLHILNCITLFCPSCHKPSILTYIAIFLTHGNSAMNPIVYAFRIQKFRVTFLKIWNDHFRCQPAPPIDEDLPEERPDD

Row | SMILES | Ki [1, 3] | A2a selectivity (A2a A1 binding selectivity) [2] | Ki [1, 4]
1 | Nc1nc(C(=O)NCc2cccc3cccnc23)c2cccc(C(F)(F)F)c2n1 [Example 92, 2-amino-N-(8-quinolylmethyl)-8-(trifluoromethyl)quinazoline-4-carboxamide] | 2.3 nM | 560 | 
2 | Cc1cccc(CNC(=O)c2nc(N)nc3c(Cl)cc(Cl)cc23)n1 [Example 93, 2-amino-6,8-dichloro-N-[(6-methyl-2-pyridyl)methyl]quinazoline-4-carboxamide] | 6.5 nM | 55 | 
3 | CSc1cccc2c(C(=O)NCc3cccc4cccnc34)nc(N)nc12 [Example 94, 2-amino-8-methylsulfanyl-N-(8-quinolylmethyl)quinazoline-4-carboxamide] |  | 11 | 7.7 nM
4 | CS(=O)(=O)c1cccc2c(C(=O)NCc3cccc4cccnc34)nc(N)nc12 [Example 95, 2-amino-8-methylsulfonyl-N-(8-quinolylmethyl)quinazoline-4-carboxamide] | 86 nM | 55 | 
5 | Nc1nc(C(=O)NCc2cccc3cccnc23)c2cccc(Br)c2n1 [Example 96, 2-amino-8-bromo-N-(8-quinolylmethyl)quinazoline-4-carboxamide] |  | 12 | 0.7 nM
6 | Nc1nc(C(=O)NCc2cccc3cccnc23)c2cccc(-c3cncnc3)c2n1 [Example 97, 2-amino-8-pyrimidin-5-yl-N-(8-quinolylmethyl)quinazoline-4-carboxamide] | 291 nM | 1 | 
7 | Cc1ccc(F)c(CNC(=O)c2nc(N)nc3c(-c4ncco4)cccc23)n1 [Example 98, 2-amino-N-[(3-fluoro-6-methyl-2-pyridyl)methyl]-8-oxazol-2-yl-quinazoline-4-carboxamide] | 1.7 nM | 133 | 
8 | Nc1nc(C(=O)NCc2ncccn2)c2cccc(I)c2n1 [Example 99, 2-amino-8-iodo-N-(pyrimidin-2-ylmethyl)quinazoline-4-carboxamide] | 229 nM | 8 | 
9 | N#Cc1cccc2c(C(=O)NCc3cccc4cccnc34)nc(N)nc12 [Example 100, 2-amino-8-cyano-N-(8-quinolylmethyl)quinazoline-4-carboxamide] | 2.1 nM | 163 | 

Continued, values first:

Row | Ki [1, 3] | A2a selectivity (A2a A1 binding selectivity) [2] | Ki [1, 4] | SMILES
10 | 0.2 nM | 88 |  | Nc1nc(C(=O)NCc2cccc3cccnc23)c2cccc(OC(F)(F)F)c2n1 [Example 101, 2-amino-N-(8-quinolylmethyl)-8-(trifluoromethoxy)quinazoline-4-carboxamide]
11 | 1.2 nM | 33 |  | Nc1nc(C(=O)NCc2cccc(Cc3ccc(F)c(F)c3)n2)c2cccc(F)c2n1 [Example 102, 2-amino-N-[[6-[(3,4-difluorophenyl)methyl]-2-pyridyl]methyl]-8-fluoro-quinazoline-4-carboxamide]
12 |  | 42 | 2.5 nM | COc1cccc2c(C(=O)NCc3cccc(Cc4ccccc4)n3)nc(N)nc12 [Example 103, 2-amino-N-((6-benzylpyridin-2-yl)methyl)-8-methoxyquinazoline-4-carboxamide]
13 |  | 93 | 5 nM | COc1cccc2c(C(=O)NCc3cccc(Cc4cccnc4)n3)nc(N)nc12 [Example 104, 2-amino-8-methoxy-N-((6-(pyridin-3-ylmethyl)pyridin-2-yl)methyl)quinazoline-4-carboxamide]
14 |  | 70 | 1.9 nM | [2H]C([2H])(NC(=O)c1nc(N)nc2c(OC)cccc12)c1cccc(C([2H])([2H])c2cccc(OCCOC)c2)n1 [Example 106, 2-amino-N-[dideuterio-[6-[dideuterio-[3-(2-methoxyethoxy)phenyl]methyl]-2-pyridyl]methyl]-8-methoxy-quinazoline-4-carboxamide]
15 | 2 nM | 95 |  | [2H]C([2H])(NC(=O)c1nc(N)nc2c(OC)cccc12)c1cccc(C([2H])([2H])c2cncc(OCCOC)c2)n1 [Example 107, 2-amino-N-[dideuterio-[6-[dideuterio-[5-(2-methoxyethoxy)-3-pyridyl]methyl]-2-pyridyl]methyl]-8-methoxy-quinazoline-4-carboxamide]
16 |  | 77 | 2.1 nM | [2H]C([2H])(NC(=O)c1nc(N)nc2c(OC)cccc12)c1cccc(C([2H])([2H])c2cncc(-c3ncco3)c2)n1 [Example 108, 2-amino-N-[dideuterio-[6-[dideuterio-(5-oxazol-2-yl-3-pyridyl)methyl]-2-pyridyl]methyl]-8-methoxy-quinazoline-4-carboxamide]
17 |  | 120 | 2.3 nM | [2H]C([2H])(NC(=O)c1nc(N)nc2c(OC)cccc12)c1cccc(C([2H])([2H])c2ccc(C(C)(C)OCOC)nc2)n1 [Example 109, 2-amino-N-[dideuterio-[6-[dideuterio-[6-[1-(methoxymethoxy)-1-methyl-ethyl]-3-pyridyl]methyl]-2-pyridyl]methyl]-8-methoxy-quinazoline-4-carboxamide]
18 |  | 64 | 2.5 nM | [2H]C([2H])(NC(=O)c1nc(N)nc2c(OC)cccc12)c1cccc(C([2H])([2H])c2cncc(N3CCOCC3)c2)n1 [Example 110, 2-amino-N-[dideuterio-[6-[dideuterio-(5-morpholino-3-pyridyl)methyl]-2-pyridyl]methyl]-8-methoxy-quinazoline-4-carboxamide]
19 |  | 28 | 1.3 nM | Nc1nc(C(=O)NCc2cccc(Cc3ccccc3F)n2)c2cccc(F)c2n1 [Example 111, 2-amino-8-fluoro-N-[[6-[(2-fluorophenyl)methyl]-2-pyridyl]methyl]quinazoline-4-carboxamide]
20 | 1.6 nM | 31 |  | Nc1nc(C(=O)NCc2cccc(Cc3ccncc3)n2)c2cccc(F)c2n1 [Example 112, 2-amino-8-fluoro-N-[[6-(4-pyridylmethyl)-2-pyridyl]methyl]quinazoline-4-carboxamide]
